According to patent US20100015126A1, “Methods of Binding of Cross-Beta Structures By Chaperones” (priority 2006, published 2010):

Columns and labels:
HUVECs = test: FACS: binding of misfolded proteins and BiP to HUVECs; assay type: cell-based, human
Protocol: For these experiments HUVECs were isolated by trypsinization. After trypsinization cells were collected in RPMI 1640, containing P/S and 10% FCS and centrifuged. After centrifugation cells were resuspended in RPMI medium without FCS at a concentration of 1.250.000 cells/250 μl. Individual 4-ml tubes (polypropylene, Greiner), containing 250 μl cell suspensions were made. To each tube 75 μl of a sample, containing either, • a. buffer (PBS) only, or • b. 25 μl PBS+50 μl BiP (1.16 mg/ml), or • c. 50 μl buffer with 25 μl oxLDL (1 mg/ml), or • d. 74 μl buffer with 1 μl BSA-AGE (25 mg/ml), or • e. 24 μl PBS+1 μl BSA-AGE (25 mg/ml)+50 μl BiP (1.16 mg/ml), or • f. 25 μl oxLDL (1 mg/ml)+50 μl BiP (1.16 mg/ml), • g. 1.6 μl dIgIV-65 (20 mg/ml)+73.4 μl PBS • h. […]
was added. Subsequently, the cells were incubated with the sample for approximately 30 minutes at 4° C. Next, cells were pelleted by centrifugation and the supernatant was discarded. Cells were washed subsequently with FACS buffer (PBS/0.5% BSA/0.05% m/v NaN3) at 4° C. and resuspended in FACS-buffer at approximately 1*10^5 cells/100 μl for subsequent analysis. Cell death was determined by adding 3 μl 7-aminoactinomycin D (7AAD) solution (prepared according to standard procedures). Binding of sample BSA-AGE (see elsewhere in this application for preparation details) was determined with anti-AGE monoclonal antibody 4B5 (10 μg/ml) and, after washing, with goat anti-mouse PE secondary antibodies (Jackson Immunoresearch, West Grove, USA). Binding of BSA-AGE was also assessed using the intrinsic fluorescence of BSA-AGE in the PE channel. Binding of oxidized LDL (oxLDL, oxidized for 56% following incubation with FeSO4; specific enhancement of Thioflavin T fluorescence) was determined with rabbit serum with anti-ApoB100 polyclonal antibodies at a concentration of 160 μg/ml and, after washing the cells, with FITC-labelled goat anti-rabbit antibodies (1:200, Jackson). Binding of dIgIV-65 was assessed by using anti-Human IgG antibody. BiP binding was determined using the earlier mentioned anti-FLAG antibody (M2, Sigma-Aldrich).

[1] = system: freshly isolated human platelets; test: Crossbeta-induced human platelet aggregation (aggregometer); assay type: cell-based; settings: 8 μM TRAP
[2] = system: human monocyte-derived dendritic cells; test: FACS: binding of misfolded proteins and BiP to human monocyte-derived dendritic cells; assay type: cell-based
Source text: In vitro generation of peripheral blood human monocyte-derived dendritic cells, and analyses for binding of misfolded proteins and BiP
Human DCs are generated from non-proliferating precursors selected from peripheral blood mononuclear cells (PBMCs), essentially by published methods (Sallustro and Lanzavecchia [1994], J. Exp. Med. 179 1109-1118). Relative abundant presence of CD1a, CD32, CD36, CD40, CD54, CD86, HLA-DR and CD206 and relative low content of CD14 positive, CD16 positive, CD64 positive, CD80 positive, CD83 positive and CD163 positive cells serve as a quality measure for the immature DCs. After obtaining the immature DCs upon stimulation with GM-CSF and IL-4, direct binding of misfolded proteins and BiP to the DCs is assessed by incubating 200.000 cells (2*10^6 cells/ml) for 30 minutes at 4° C. under metabolic arrested state, with 1) PBS, 2) 58 μg/ml BiP (830 nM), 4) 250 μg/ml BSA-AGE (3.6 μM), 5) BSA-AGE+BiP, 6) 250 μg/ml oxLDL, 7) oxLDL+BiP, 8) mixture of BiP-binding peptides 6BB8-11, 13 (see Table 5), 125 μg/ml+BiP, and 8) 62.5 μg/ml Aβ16-22, 62.5 μg/ml Aβ25-35+BiP. After the incubation and careful washing of the cells, binding of BiP, BSA-AGE and oxLDL is assessed with FACS, using primary antibodies monoclonal anti-FLAG antibody, monoclonal anti-glycated human fibronectin antibody 4B5 and rabbit serum with anti-human apoliprotein B-100 antibody (Dade Behring, Newark, Del., USA), and the appropriate FITC- or PE-labeled secondary antibody. Mean fluorescence intensity (MFI) ratio's are determined by measuring background fluorescence.

[3] = system: freshly isolated human platelets; test: Crossbeta-induced human platelet aggregation (aggregometer); assay type: cell-based
Protocol: Ex vivo Human Blood Platelet Aggregation Assay
The influence of crossbeta structure binding chaperones on blood platelet aggregation induced by crossbeta structure or crossbeta structure comprising pathogens is tested with washed platelets or with platelet rich plasma in an aggregometric assay. Freshly drawn human aspirin free blood is mixed gently with citrate buffer to avoid coagulation. Blood is spinned for 15′ at 150*g at 20° C. and supernatant is collected; platelet rich plasma (PRP). Buffer with 2.5% trisodium citrate, 1.5% citric acid and 2% glucose, pH 6.5 is added to a final volume ratio of 1:10 (buffer-PRP). After spinning down the platelets upon centrifugation for 15′ at 330*g at 20° C., the pellet is resuspended in HEPES-Tyrode buffer pH 6.5. Prostacyclin is added to a final concentration of 10 ng/ml, and the solution is centrifuged for 15′ at 330*g at 20° C., with a soft brake. The pellet is resuspended in HEPES-Tyrode buffer pH 7.2 in a way that the final platelet number is adjusted to 200,000-250,000 platelets/μl. Platelets are kept at 37° C. for at least 30′, before use in the assays, to ensure that they are in the resting state. Platelets of approximately five donors are isolated separately.
For the aggregometric assays, platelet solution is added to a glass tube and prewarmed to 37° C. A stirring magnet is added and rotation is set to 900 rpm, and the apparatus (Whole-blood aggregometer, Chrono-log, Havertown, Pa., USA) is blanked. A final volume of 1/10 of the volume of the platelet suspension is added, containing the agonist of interest and/or the premixed antagonist of interest, prediluted in HEPES-Tyrode buffer pH 7.2. Aggregation is followed in time by measuring the absorbance of the solution, that is decrease in time upon platelet aggregation. As a positive control, either 10 μg/ml collagen (Kollagenreagens Horm, NYCOMED Pharma GmbH, Linz, Austria; lot 502940), or 5 μM of synthetic thrombin receptor activating compound TRAP. In tests to analyse the effect of chaperones, 10-100 μg/ml glycated haemoglobin or 10-100 μg/ml amyloid-β is used to induce platelet aggregation. Aggregation is recorded for at least 15′.
Platelet aggregation-studies with freshly isolated human platelets were performed as described above. For aggregation studies, platelets of four separate donors were used on subsequent days.

BiP: Recombinant human HSP70 family chaperone BiP with C-terminal linker, FLAG-tag and His-tag, expressed in HEK 293E cells
Binding of BiP to HUVECs (MFI ratio) (HUVECs; BiP alone): 1.4
Binding of BiP to ECs (HUVECs; co-incubated with dIgIV-86): neither BiP did bind
TRAP-induced platelet aggregation [1]: unaffected
Binding of BiP to DCs (MFI ratio) ([2]; BiP alone, 58 μg/ml, 30 minutes at 4° C.): 1.4
Binding to DCs (MFI ratio), BiP ([2]; FACS, human dendritic cells, detection of BiP, signal divided by background signal): 1.4
Platelet aggregation by protein alone, without activator [3]: did not induce platelet aggregation
Misfolded protein induced platelet aggregation ([3]; activators Aβ42t=0, HbAGE, BSA-AGE, four donors): potently inhibited
Platelet aggregation induced by amyloid-β1-42 ([3]; donor a): strongly inhibited
Platelet aggregation induced by crossbeta BSA-AGE ([3]; donor a): strongly inhibited
Platelet aggregation induced by Aβ1-42 ([3]; donor b, Aβ42t=0 26.7 μg/ml): inhibited
Platelet aggregation induced by crossbeta BSA-AGE ([3]; donor b, BSA-AGE 33.3 μg/ml): strongly inhibited
Aβ42 induced platelet activation ([3]; donor c): abolish
BSA-AGE induced platelet aggregation ([3]; donor c): inhibit
HbAGE induced platelet aggregation ([3]; donor c): inhibited
HbAGE induced platelet aggregation ([3]; donor d, BiP 58 μg/ml, sRAGE 37.4 μg/ml, HbAGE 80 μg/ml): inhibits
